Source: patent publication US20160243062A1, “SYNTHESIS AND GROWTH REGULATORY ACTIVITY OF A PROTOTYPE MEMBER OF A NEW FAMILY OF AMINOTHIOL RADIOPROTECTORS” (WISCONSIN ALUMNI RESEARCH FOUNDATION, priority 2012, published 2016)

Tested on: radiation dermatitis in rat skin
Test: Rat radiation dermatitis assay, topical application before irradiation
Type: in vivo
Procedure: To determine if PrC-210 could function as a topical radioprotector that could prevent radiation dermatitis when applied prior to a cancer patient's daily radiotherapy, a rat assay that realistically mimics human radiation dermatitis was created. This assay quantifies the severity of radiation dermatitis in rat skin 13 days after a single radiation dose of 17.33 Gy.
In this study, PrC-210 was applied to rat skin in an ethanol/water delivery vehicle four times in the 2 h before irradiation, and control rats received only topical vehicle before irradiation (FIG. 2). Additional drug/irradiation groups of three rats each received either the alkyl-thiol moiety or the alkyldiamine moiety from PrC-210 in the same delivery vehicle. Following the 17.33 Gy irradiation of a […] patch of dorsal skin on the rats' backs, rats were scored 13 days later.
Molecules were applied to skin in an alcohol/water delivery vehicle prior to receiving a 17.33 Gy radiation dose to the 1.5 cm×3.0 cm skin site. Radiation dermatitis severity (i.e., % of the site covered by scab material) was scored 13 days following irradiation.

CNCC(CS)CNC [PrC-210, 3-(methyl-amino)-2-((methylamino)methyl)propane-l-thiol]
topical radioprotective potency and efficacy compared with thiolated polyamines and other PrC-200 series aminothiols (radiodermatitis test groups): most potent and most effective topical aminothiol to date | prevention of radiation dermatitis (% of the site covered by scab material) (topical in ethanol/water vehicle four times in the 2 h before single 17.33 Gy dose, scored 13 days later): completely prevent radiation dermatitis
